Laboratory results reported in patent US9822336B2, “Blastoid, cell line based artificial blastocyst” (Universiteit Maastricht, priority 2013, dated 2017).

Key:
Type in all cases: cell-based, mouse
[1] = system: inner cell mass (ICM) of blastoids; experiment: Size of inner cell mass (ICM) in cavitated blastoids, projection area; conditions: up to a concentration of 1000 μM (FIG. 4f)
Source text: FIG. 4d: size of inner cell mass (ICM) as a function of the average number of ES-cells seeded per microwell. Size of ICM, measured as the projection area of the ES cell cluster inside the cavitated blastoid, increases with increasing numbers of ES cells seeded per microwell.
The size of the inner cell mass (ICM) depends on the average number of ES-cells seeded, and increases with the number of ES-cells seeded per microwell as described in FIG. 4. The size as defined by its projection area is generally between 1000 and 5000 um^2, preferably between 2000 and 4500 um^2. The size is conveniently expressed by determining the projection area (in um^2) of the ICM through light microscopy.

ES-TS cell clusters [2] = experiment: Cavitation of ES-TS cell clusters (yield of cavitated blastoids); conditions: for yield of blastoids cavitation: FIG. 4i, added to CHIR99021 3 uM, versus control with CHIR99021 3 uM only; for yield of cavitated blastoids / cavitation: FIG. 4h
Method: FIG. 4c: […], The yield of cavitated blastoids is described by the percentage of ES-TS cell clusters that were cavitated after 96 hours of culture, thus forming an artificial blastocyst or blastoid. […]
The efficiency of blastoid formation is measured as the percentage of cavitated structures with (1) an external cellular layer expressing the transcription factors CDX2, Eomes and GATA3 and (2) an internal cellular aggregate expressing the transcription factors Oct4 and Sox2 and at least partly Nanog.
The formation of a cavity is assessed by the formation of a volume within the aggregate that is not occupied by cellular nucleus. The formation of a cavity is preferably assessed using the cross-sectional section of a cellular aggregate stained with a nuclear-specific dye (for example DAPI).
• Double layer formation: the formation of an (at least) double layered cell aggregate with an external layer of TS cells and an inner layer of ES cells is evaluated using transgenic cell lines. Specifically, ES cells were transfected with Histone 2B and a Red Fluorescent Protein under the control of a cytomegalovirus promoter and clonally derived. The H2B-RFP ES cells are thus constitutively expressing a red fluorescence within their nucleus which allows for their tracking. • TS cells were derived from a mouse constitutively expressing Green Fluorescent Protein (GFP) under the control of a cytomegalovirus promoter in all cells. The GFP TS cells are thus expressing a green fluorescence in their cytoplasma which allows for their tracking. • The formation of a double-layered aggregate is thus assessed by observing a green outer layer of cells and a red inner layer of cells. The efficiency of engulfment is determined as the percentage of green-colored projection area (representing the TS cell layer) that overlaps with an artificial 3-pixel-wide ring drawn around the red-colored projection area (representing the inner aggregate of ES cells) after 24 hours of culturing the ES-TS cell clusters. The said efficiency of engulfment described in FIG. 4 represents the average value taken from approximately 200 ES-TS cell clusters. • Cavitation: The formation of a cavity is assessed by the formation of a volume within the aggregate that is not occupied by cellular nucleus. The formation of a cavity is preferably assessed using the cross-sectional section of a cellular aggregate stained with a nuclear-specific dye (for example DAPI). […] The expression of cdx2 is assessed as the number of GFP positive cells with a cdx2 positive nucleus per 10 μm microscopic section. The expression of the transcription factors Oct4 and Nanog is assessed by conventional immunocytochemistry in ES-TS aggregates including H2B-RFP expressing ES cells. The expression of Oct4 and Nanog is assessed as the number of H2B-RFP positive cells with an Oct4 or Nanog positive nucleus per 10 μm microscopic section. Pictoral Summary of the Procedure for Blastoid Formation: […]

ES-TS cell clusters [3] = experiment: Efficiency of engulfment during formation of ES-TS cell clusters; conditions: at higher concentration of Y27632; after 24 hours of culture (FIG. 4a)
Method: Mouse TS-cells were seeded at 17 cells/microwell in 150 μL B27N2 medium. After 20 minutes, 1 ml of B27N2 medium was added that included 10% FBS, Y27632 20 μM, 8Br-cAMP (1 mM), 007-AM (1 nM) and CHIR 3 μM, FGF4 15 ng/ml, Tgfb1 5 ng/ml, IGF2, 10 ng/ml, estradiol 10 ng/ml. The cells were placed in an incubator set at 37° Celsius to form the ES-TS cell cluster. • Double layer formation: the formation of an (at least) double layered cell aggregate with an external layer of TS cells and an inner layer of ES cells is evaluated using transgenic cell lines. […] The H2B-RFP ES cells are thus constitutively expressing a red fluorescence within their nucleus which allows for their tracking. • TS cells were derived from a mouse constitutively expressing Green Fluorescent Protein (GFP) under the control of a cytomegalovirus promoter in all cells. The GFP TS cells are thus expressing a green fluorescence in their cytoplasma which allows for their tracking. • The formation of a double-layered aggregate is thus assessed by observing a green outer layer of cells and a red inner layer of cells. […] The said efficiency of engulfment described in FIG. 4 represents the average value taken from approximately 200 ES-TS cell clusters. • Cavitation: The formation of a cavity is assessed by the formation of a volume within the aggregate that is not occupied by cellular nucleus. […]

[4] = system: Cdx2 expression in trophoblast stem cells of ES-TS aggregates; experiment: Cdx2 expression by CDX2 immunostaining; conditions: CDX2 immunostaining (FIG. 4g)
Method: • Double layer formation: the formation of an (at least) double layered cell aggregate with an external layer of TS cells and an inner layer of ES cells is evaluated using transgenic cell lines. Specifically, ES cells were transfected with Histone 2B and a Red Fluorescent Protein under the control of a cytomegalovirus promoter and clonally derived. The H2B-RFP ES cells are thus constitutively expressing a red fluorescence within their nucleus which allows for their tracking. • TS cells were derived from a mouse constitutively expressing Green Fluorescent Protein (GFP) under the control of a cytomegalovirus promoter in all cells. The GFP TS cells are thus expressing a green fluorescence in their cytoplasma which allows for their tracking. • The formation of a double-layered aggregate is thus assessed by observing a green outer layer of cells and a red inner layer of cells. The efficiency of engulfment is determined as the percentage of green-colored projection area (representing the TS cell layer) that overlaps with an artificial 3-pixel-wide ring drawn around the red-colored projection area (representing the inner aggregate of ES cells) after 24 hours of culturing the ES-TS cell clusters. […] The formation of a cavity is preferably assessed using the cross-sectional section of a cellular aggregate stained with a nuclear-specific dye (for example DAPI). […]

Question: What does the source list for `Nc1ncnc2c1nc(Br)n2[C@@H]1O[C@@H]2COP(=O)(O)O[C@H]2[C@H]1O` [8Br-cAMP]?
Answer: size of ICM [1]: positively correlates with an increase in the size of ICM; yield of cavitation (ES-TS cell clusters [2]; 8Br-cAMP 0.1-10 mM, for example 1 mM): increases the yield of cavitation; yield of blastoids cavitation (ES-TS cell clusters [2]): increase the yield of blastoids cavitation

Question: `Cc1c[nH]c(-c2cnc(NCCNc3ccc(C#N)cn3)nc2-c2ccc(Cl)cc2Cl)n1` [CHIR99021, 6-{2-[4-(2,4-dichloro-phenyl)-5-(4-methyl-1H-imidazol-2-yl)-pyrimidin-2-ylamino]-ethylamino}-nicotinonitrile] was tested. Which blastoid yield (ES-TS cell clusters [2]; CHIR99021 at 3 uM) did it give?
Answer: The blastoid yield was 10%.

Question: And the blastoid yield (ES-TS cell clusters [2]; CHIR99021 at 20 uM)?
Answer: Its blastoid yield is roughly 30%.

Question: What about the “yield of cavitated blastoids / cavitation” value (ES-TS cell clusters [2]; CHIR99021 at 3 uM) of the same compound?
Answer: Its value is “increases the yield of cavitated blastoids”.

Question: What about the “yield of cavitated blastoids” value (ES-TS cell clusters [2]; increasing concentrations (FIG. 4e)) of the same compound?
Answer: Its value is “positively correlate with an increase in the yield of cavitated blastoids”.

Question: With `CC(C)[C@H]1C(=O)N[C@H](CO)Cc2c[nH]c3cccc(c23)N1C` [Indolactam V] as the compound, how does the “yield of blastoids cavitation” value (ES-TS cell clusters [2]) read?
Answer: Its value is “increase the yield of blastoids cavitation”.

Question: And the yield of cavitation (ES-TS cell clusters [2]; Indolactam V 0.1-10 uM, for example 1 uM)?
Answer: The yield of cavitation was “increases the yield of cavitation”.

Question: `Oc1nc(-c2ccc(C(F)(F)F)cc2)nc2c1CSCC2` [XAV939] was tested. Which “yield of cavitated blastoids / cavitation” value (ES-TS cell clusters [2]; CHIR99021 at 3 uM) did it give?
Answer: The value was “prevents the cavitation of blastoids”.

Question: For `C[C@@H](N)[C@H]1CC[C@H](C(=O)Nc2ccncc2)CC1` [Y27632, (1R,4r)-4-((R)-1-aminoethyl)-N-(pyridin-4-yl)cyclohexanecarboxamide], which efficiency of engulfment (ES-TS cell clusters [3]) is on record?
Answer: The efficiency of engulfment was “increase in efficiency of engulfment”.

Question: For “IGF2: a protein and a growth factor known in the art to activate the Akt pathway”, which Cdx2 expression [4] is on record?
Answer: Its Cdx2 expression is “positively correlates with an increase of Cdx2 expression”.
